Data on 22 molecules can be found in ChEMBL document CHEMBL5365392, “Inhibitors of ABCG2-mediated multidrug resistance: Lead generation through computer-aided drug design” (Eur J Med Chem, 2023).

Broadly, the inhibition is the change of the read-out against control, counted positive when it falls. A word on the EC50: it is the midpoint of the concentration-response curve.

“And” between values parts separate entries of the source, which are not always exact repeats. Identical values can stand only once.

Data set [1] concerns the target T1, ABCG2 (Homo sapiens, UniProt Q9UNQ0).
T1 sequence (Q9UNQ0 whole entry): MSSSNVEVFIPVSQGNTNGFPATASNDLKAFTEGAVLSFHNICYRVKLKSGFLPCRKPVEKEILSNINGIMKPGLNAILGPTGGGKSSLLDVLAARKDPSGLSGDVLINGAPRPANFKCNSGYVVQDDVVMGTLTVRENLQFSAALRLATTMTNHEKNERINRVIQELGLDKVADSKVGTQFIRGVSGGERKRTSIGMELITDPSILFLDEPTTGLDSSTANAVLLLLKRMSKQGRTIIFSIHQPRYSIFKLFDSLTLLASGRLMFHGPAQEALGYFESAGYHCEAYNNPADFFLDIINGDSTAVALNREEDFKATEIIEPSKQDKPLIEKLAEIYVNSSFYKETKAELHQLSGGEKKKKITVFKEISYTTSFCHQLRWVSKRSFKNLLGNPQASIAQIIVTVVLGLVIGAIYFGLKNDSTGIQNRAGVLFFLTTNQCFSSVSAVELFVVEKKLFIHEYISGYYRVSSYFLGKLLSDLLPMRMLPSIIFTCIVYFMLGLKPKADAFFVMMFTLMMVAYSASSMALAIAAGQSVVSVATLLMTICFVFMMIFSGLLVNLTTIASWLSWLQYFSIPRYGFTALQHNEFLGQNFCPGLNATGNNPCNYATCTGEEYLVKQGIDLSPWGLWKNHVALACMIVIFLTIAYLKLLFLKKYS
The data set is described as follows: (§1) Inhibition of ABCG2 (unknown origin)-mediated mitoxantrone efflux at 5 uM relative to control. The note with it: probe mitoxantrone.

Data set [2] addresses T2, Broad substrate specificity ATP-binding cassette transporter ABCG2 (Homo sapiens, UniProt Q9UNQ0).
T2 sequence (Q9UNQ0 whole entry): T1 sequence (Q9UNQ0 whole entry)
The data set is described as follows: Inhibition of ABCG2 (unknown origin)-mediated mitoxantrone efflux.

For data set [3], the target named is T2, Broad substrate specificity ATP-binding cassette transporter ABCG2. The data set is described as §1. To be noted: 5 µM.
Data set [4] shares this target. The data set is described as follows: Inhibition of ABCG2 (unknown origin) expressed in HEK293 cells assessed as reduction in mitoxantrone accumulation incubated for 30 mins by flow cytometric method. The data set is classed as cell-based. Background: A flow cytometer gives signals particle by particle.

In the case of `COc1ccc2c3c([nH]c2c1)[C@H](C=C(C)C)N1C(=O)[C@@H]2CCCN2C(=O)[C@@H]1C3` [FUMITREMORGIN], the inhibition at 5 µM in data set [1] came out at 100%. Further, a half-maximal effect in data set [2] (EC50) was put at 2000 nM.

Consider `O=c1ccc(=O)c2c1c1c(=O)c3ccccc3c1n2CCCc1ccccc1`, for which, in data set [1], the inhibition at 5 µM stood at 33%.

As to `CN(CCc1cn(C)c2ccccc12)C(=O)c1cc(=O)c2c(OCc3ccc(Br)cc3)cccc2o1`, in data set [1], the inhibition at 5 µM stood at 88%.

Regarding `COc1ccc2[nH]cc(CCN(C)Cc3cc(=O)c4c(OCc5ccc(Br)cc5)cccc4o3)c2c1`, the “inhibition (INH)” value in data set [3] was 46% and 75%. Besides, the EC50 in data set [2] turned out to be 1800 nM.

On to `O=c1cc(-c2ccccc2)c(=O)c2c1c1c(=O)c3ccccc3c1n2Cc1ccccc1`, for which the inhibition at 5 µM in data set [1] was determined as 41%.

Regarding `COc1ccc2[nH]cc(CCN(C)C(=O)c3cc(=O)c4c(OCc5ccc(Br)cc5)cccc4o3)c2c1`, the inhibition at 5 µM in data set [1] was determined as 101%.

For `O=c1cc(-c2ccccc2)c(=O)c2c1c1c(=O)c3ccccc3c1n2CCc1ccccc1`, in data set [1], the inhibition at 5 µM is 128%. The molecule also registered an EC50 in data set [2] of 430 nM.

As to `COc1ccc2c(CCNC(=O)c3cc(=O)c4c(OCc5ccc(Br)cc5)cccc4o3)c[nH]c2c1`, in data set [1], the inhibition at 5 µM is 97%.

`COc1cccc(CCn2c3c(c4c2-c2ccccc2C4=O)C(=O)CCC3)c1`: in data set [1], the inhibition at 5 µM was 78%. In data set [2], the EC50 was found to be 310 nM.

With `C=CCOc1ccc(CNCCc2c[nH]c3ccccc23)cc1OCC`, the EC50 in data set [4] was found to be 130 nM.

In the case of `Cc1cc(=O)c2c3c(=O)c4ccccc4c3n(CCc3ccccc3)c2c1=O`, in data set [1], the inhibition at 5 µM came out at 99%. Moreover, it took 840 nM to reach a half-maximal effect in data set [2] (EC50).

As to `CN(CCc1c[nH]c2ccccc12)C(=O)c1cc(=O)c2c(OCc3ccc(Br)cc3)cccc2o1`, the inhibition at 5 µM in data set [1] was 105%.

Take `CC1CC(=O)c2c3c(n(CCc4ccccc4)c2C1)-c1ccccc1C3=O` (stereo not drawn): the inhibition at 5 µM in data set [1] was 100%. In addition, a half-maximal response in data set [2] (EC50) required 230 nM.

In the case of `O=C1CC(c2ccccc2)Cc2c1c1c(n2Cc2ccccc2)-c2ccccc2C1=O` (stereo not drawn), the inhibition at 5 µM in data set [1] amounted to 68%. In data set [2], this molecule showed an EC50 of 960 nM.

Regarding `O=c1ccc(=O)c2c1c1c(=O)c3ccccc3c1n2CCc1ccccc1`, the inhibition at 5 µM in data set [1] was 18%.

For `Cn1cc(CCNC(=O)c2cc(=O)c3c(OCc4ccc(Br)cc4)cccc3o2)c2ccccc21`, the inhibition at 5 µM in data set [1] stood at 85%.

Consider `O=C1CCCc2c1c1c(n2CCc2ccccc2)-c2ccccc2C1=O`, for which, in data set [1], the inhibition at 5 µM turned out to be 100%. The molecule also returned an EC50 in data set [2] of 430 nM.

`O=C1CCCc2c1c1c(n2CCCc2ccccc2)-c2ccccc2C1=O`: the inhibition at 5 µM in data set [1] came out at 83%. Besides, in data set [2], the EC50 stood at 790 nM.

Turning to `O=C(NCc1cn(CCc2c[nH]c3ccccc23)nn1)c1cc(=O)c2c(OCc3ccc(Br)cc3)cccc2o1`, the inhibition at 5 µM in data set [1] was 87%.

Take `CC(C)n1c2c(c3c1-c1ccccc1C3=O)C(=O)C(Cc1ccccc1)(Cc1ccccc1)CC2`: the inhibition at 5 µM in data set [1] amounted to 90%. In data set [2], this molecule showed an EC50 of 610 nM.

For `O=C1CC(c2ccccc2)Cc2c1c1c(n2CCc2ccccc2)-c2ccccc2C1=O` (stereo not drawn), the inhibition at 5 µM in data set [1] came out at 83%. Further, in data set [2], a half-maximal effect (EC50) was put at 490 nM.

For the molecule `COc1ccc2[nH]cc(CCNC(=O)c3cc(=O)c4c(OCc5ccc(Br)cc5)cccc4o3)c2c1`, the inhibition at 5 µM in data set [1] came to 98%.
